# In PMC7492732, “Offloading Role of a Discrete Thioesterase in Type II Polyketide Biosynthesis” (mBio, 2020):
# Target: T1, FscTE (Streptomyces sp. FR-008, UniProt Q6W5Q5)
# T1 construct: His6 tag, pET28a, expressed in E. coli BL21(DE3)/pGro7
# T1 sequence (Q6W5Q5 1-285): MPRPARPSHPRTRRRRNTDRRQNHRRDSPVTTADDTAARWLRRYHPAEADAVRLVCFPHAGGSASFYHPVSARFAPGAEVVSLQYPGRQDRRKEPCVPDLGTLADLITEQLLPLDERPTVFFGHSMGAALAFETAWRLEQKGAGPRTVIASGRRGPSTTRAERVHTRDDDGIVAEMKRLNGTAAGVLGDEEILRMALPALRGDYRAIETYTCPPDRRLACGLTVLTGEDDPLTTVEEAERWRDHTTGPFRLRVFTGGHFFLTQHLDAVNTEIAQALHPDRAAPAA
# Experiment: DTNB spectrophotometric assay at […] nm
# Format: biochemical
smiles,measurement,value
CCCC(=O)SCCNC(C)=O [butyryl-SNAC],DTNB spectrophotometric assay at 412 nm,A similar phenomenon was observed when butyryl-SNAC was used as a substrate
